According to patent US10934303B2, “Aryl ethene derivative and pharmaceutical composition containing same as active ingredient” (priority 2016, dated 2021):

Tests used:
ERRγ = format: cell-based; conditions: for Functional Assay at 10 μM (% of control), Cpds: 24 hours, AD293; for Functional Assay, Cpds/Ref 5182: activity relative to reference compound GSK5182, 10 μM
[1] = 1 μM, 30 minutes, 37° C., NADPH
Description: 2) Microsomal Stability Evaluation
(§2) Four liver microsomes (Human, Dog, Rat, Mouse 0.5 mg/ml) with a 0.1 M phosphate buffer solution (pH 7.4), and the arylethene derivative of the present invention were added to a concentration of 1 μM, culturing was performed at 37° C. for 5 minutes in advance, a NADPH regeneration system solution was added thereto, and culturing was performed at 37° C. for 30 minutes. Thereafter, in order to complete the reaction, an acetonitrile solution containing an internal standard material (chlorpropamide) was added thereto, centrifugation (14,000 rpm, 4° C.) was performed for 5 minutes, and a supernatant was injected into a LC-MS/MS system to analyze the substrate drug, thereby evaluating metabolism stability to the arylethene derivative of the present invention.

[2] = 1 μM, 30 minutes, 37° C., NADPH; remark: listed apart in the source
Description: 2) Microsomal Stability Evaluation
as §2

CYP1A2 = CYP1A2 (Homo sapiens (Human), UniProt P05177); test: Cytochrome P450 activity inhibition, CYP1A2; format: in vitro ADME; conditions: 10 μM, human liver microsomes, Phenacetin substrate
CYP1A2, sequence (P05177 whole entry): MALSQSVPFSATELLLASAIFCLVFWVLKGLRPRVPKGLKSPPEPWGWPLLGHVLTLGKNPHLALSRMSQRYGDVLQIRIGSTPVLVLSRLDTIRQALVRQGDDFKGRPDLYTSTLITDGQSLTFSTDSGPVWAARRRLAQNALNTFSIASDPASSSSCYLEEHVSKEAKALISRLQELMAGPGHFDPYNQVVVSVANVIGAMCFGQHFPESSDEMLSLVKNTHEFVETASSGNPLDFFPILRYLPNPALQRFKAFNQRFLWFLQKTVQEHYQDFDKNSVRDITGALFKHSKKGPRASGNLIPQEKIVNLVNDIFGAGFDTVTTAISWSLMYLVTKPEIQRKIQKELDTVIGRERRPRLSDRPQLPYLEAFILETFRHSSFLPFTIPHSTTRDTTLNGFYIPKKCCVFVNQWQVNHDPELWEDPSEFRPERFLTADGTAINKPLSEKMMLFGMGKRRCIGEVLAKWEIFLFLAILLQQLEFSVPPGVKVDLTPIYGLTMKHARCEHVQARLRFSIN
Text: (§1) 1) Cytochrome P450 (CYP450) Activity Inhibition Evaluation

CYP2C9 = CYP2C9 (Homo sapiens (Human), UniProt P11712); test: Cytochrome P450 activity inhibition, CYP2C9; format: in vitro ADME; conditions: 10 μM, human liver microsomes, Diclofenac substrate
CYP2C9, sequence (P11712 whole entry): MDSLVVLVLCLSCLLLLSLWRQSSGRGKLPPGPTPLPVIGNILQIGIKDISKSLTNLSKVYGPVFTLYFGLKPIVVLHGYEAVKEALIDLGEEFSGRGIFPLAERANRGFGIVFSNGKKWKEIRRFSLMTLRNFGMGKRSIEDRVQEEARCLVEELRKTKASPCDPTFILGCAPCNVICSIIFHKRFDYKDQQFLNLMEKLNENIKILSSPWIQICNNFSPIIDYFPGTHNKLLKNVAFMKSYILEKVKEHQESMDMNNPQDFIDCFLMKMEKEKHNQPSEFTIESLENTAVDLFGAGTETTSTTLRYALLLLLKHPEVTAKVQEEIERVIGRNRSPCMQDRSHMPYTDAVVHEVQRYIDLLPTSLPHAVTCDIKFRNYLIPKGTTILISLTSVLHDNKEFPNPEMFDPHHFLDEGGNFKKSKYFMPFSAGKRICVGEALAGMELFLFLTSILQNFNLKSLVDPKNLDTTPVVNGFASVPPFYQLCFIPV
Text: as §1

CYP2D6 = CYP2D6 (Homo sapiens (Human), UniProt P10635); test: Cytochrome P450 activity inhibition, CYP2D6; format: in vitro ADME; conditions: 10 μM, human liver microsomes, Dextromethorphan substrate
CYP2D6, sequence (P10635 whole entry): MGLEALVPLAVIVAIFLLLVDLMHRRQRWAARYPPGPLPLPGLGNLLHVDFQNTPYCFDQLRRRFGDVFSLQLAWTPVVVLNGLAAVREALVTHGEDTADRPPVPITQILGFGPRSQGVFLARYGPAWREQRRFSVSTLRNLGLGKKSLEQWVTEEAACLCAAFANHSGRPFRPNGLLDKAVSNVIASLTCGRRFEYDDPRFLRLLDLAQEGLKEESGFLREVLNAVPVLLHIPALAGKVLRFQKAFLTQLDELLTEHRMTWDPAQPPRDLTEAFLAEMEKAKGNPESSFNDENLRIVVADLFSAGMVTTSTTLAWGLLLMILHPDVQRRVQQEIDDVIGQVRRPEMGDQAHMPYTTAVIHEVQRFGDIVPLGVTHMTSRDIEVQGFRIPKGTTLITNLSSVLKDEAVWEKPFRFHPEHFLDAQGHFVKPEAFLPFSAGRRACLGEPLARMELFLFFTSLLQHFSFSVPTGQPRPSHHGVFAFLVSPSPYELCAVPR
Text: as §1

in vitro = in vitro ADME; set-up: Papp at 5 h: dose or concentration left out as unconfirmed; conditions: PBS pH 7.4, 25° C.; for Papp at 5 h: PAMPA, read-out: Permeability Pampa; for Permeability Pampa: 5 hours
CYP2C19 = CYP2C19 (Homo sapiens (Human), UniProt P33261); test: Cytochrome P450 activity inhibition, CYP2C19; format: in vitro ADME; conditions: 10 μM, human liver microsomes, S-mephenytoin substrate
CYP2C19, sequence (P33261 whole entry): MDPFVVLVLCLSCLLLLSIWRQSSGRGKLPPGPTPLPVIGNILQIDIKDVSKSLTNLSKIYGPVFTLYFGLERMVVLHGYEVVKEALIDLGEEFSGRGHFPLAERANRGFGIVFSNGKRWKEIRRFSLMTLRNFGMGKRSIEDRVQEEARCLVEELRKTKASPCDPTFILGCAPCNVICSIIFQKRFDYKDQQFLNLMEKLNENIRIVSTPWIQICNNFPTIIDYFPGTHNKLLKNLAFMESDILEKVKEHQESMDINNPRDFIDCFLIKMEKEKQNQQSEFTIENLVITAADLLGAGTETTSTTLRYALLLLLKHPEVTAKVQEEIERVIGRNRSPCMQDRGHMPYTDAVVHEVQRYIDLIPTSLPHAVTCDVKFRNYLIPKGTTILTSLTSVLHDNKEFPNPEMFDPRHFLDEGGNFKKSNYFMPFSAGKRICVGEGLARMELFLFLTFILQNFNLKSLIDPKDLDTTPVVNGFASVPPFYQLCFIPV
Text: as §1

CYP3A4 = CYP3A4 (Homo sapiens (Human), UniProt P08684); test: Cytochrome P450 activity inhibition, CYP3A4; format: in vitro ADME; conditions: 10 μM, human liver microsomes, Midazolam substrate
CYP3A4, sequence (P08684 whole entry): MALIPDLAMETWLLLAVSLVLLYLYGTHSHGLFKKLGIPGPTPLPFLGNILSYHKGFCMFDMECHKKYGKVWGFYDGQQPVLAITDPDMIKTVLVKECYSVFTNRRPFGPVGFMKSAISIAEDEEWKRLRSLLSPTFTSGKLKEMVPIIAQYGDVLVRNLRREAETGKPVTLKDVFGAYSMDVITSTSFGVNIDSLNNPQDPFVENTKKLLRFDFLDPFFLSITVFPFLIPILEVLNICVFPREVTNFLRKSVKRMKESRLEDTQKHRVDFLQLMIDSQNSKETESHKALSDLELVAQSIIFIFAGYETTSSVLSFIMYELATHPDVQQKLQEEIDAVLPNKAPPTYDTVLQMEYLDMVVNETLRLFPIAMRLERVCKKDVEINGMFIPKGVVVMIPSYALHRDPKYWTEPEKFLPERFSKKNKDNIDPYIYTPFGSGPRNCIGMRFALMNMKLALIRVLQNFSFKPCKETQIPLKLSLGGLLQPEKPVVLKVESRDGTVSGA
Text: as §1

in vivo = format: in vivo; conditions: rat, IV, 1 mg/kg
Description: An oral administration group fasts the day before.
Blood of each animal is collected at 0 hour.
Into a tail vein of an intravenous administration group (IV), a drug is injected at a dose of 1 mg/kg (syringe).
To an oral administration group (PO), a drug is orally administered at a dose of 10 mg/kg (oral zondec)
After administration, blood of the intravenous administration group was collected through a jugular vein 8 times at 0.08, 0.25, 0.5, 1, 2, 4, 6, and 8 hours. One collected blood amount is 400 to 500 ul.
After administration, blood of the oral administration group was collected through a jugular vein 6 times at 0.25, 0.5, 1, 4, 6 and 8 hours. One collected blood amount is 400 to 500 ul.
Supernatant plasma is collected by a centrifuge.
The supernatant plasma was injected into a LC-MS/MS system and the drug is analyzed.

| Compound | Functional Assay at 10 μM (% of control), Cpds (ERRγ) | Functional Assay, Cpds/Ref 5182 (ERRγ) | MS(Microsomal Stability) (%) human [1] [%] | MS(Microsomal Stability) (%) rat [2] [%] | also measured |
| --- | --- | --- | --- | --- | --- |
| CN1CCN(CCOc2ccc(/C(=C(/CCCO)c3ccccc3)c3ccc(O)cc3)cc2)CC1 [Compound 6b] | 7.97 % of control | 2.59 |  |  |  |
| OCCC/C(=C(\c1ccc(O)cc1)c1ccc(OCCN2CCOCC2)cc1)c1ccccc1 [Compound 6c] | 4.64 % of control | 1.51 | 128.0 | 45.2 |  |
| CN1C[C@@H]1CCCOc1ccc(/C(=C(/CCCO)c2ccccc2)c2ccc(Br)cc2)cc1 (stereo partly drawn) [Compound 13c] | 10.58 % of control | 3.36 |  |  |  |
| CN1CCCC1CCOc1ccc(/C(=C(/CCCO)c2ccccc2)c2ccc(Br)cc2)cc1 (stereo not drawn) [Compound 13d] |  |  | 67.3 | 59.9 | CYP inhibition (% of control) 1A2 (CYP1A2): >100 % of control; CYP inhibition (% of control) 2C9 (CYP2C9): 97 % of control; CYP inhibition (% of control) 2D6 (CYP2D6): >100 % of control; Papp at 5 h (in vitro): 0.14 ×10⁻⁶ cm/s |
| CC(C)(C)OC(=O)N1CCN(c2ccc(/C(=C(/CCCO)c3ccccc3)c3ccc(O)cc3)cc2)CC1 [Compound 18m] | 2.97 % of control | 1.01 |  |  |  |
| OCCC/C(=C(\c1ccc(O)cc1)c1ccc(N2CCOCC2)cc1)c1ccccc1 [Compound 18o] | 23.2 % of control | 2.33 |  |  |  |
| CC(C)(C)OC(=O)N1CC(c2ccc(/C(=C(/CCCO)c3ccccc3)c3ccc(O)cc3)cc2)C1 [Compound 18t, tert-butyl (E)-3-(4-(5-hydroxy-1-(4-hydroxyphenyl)-2-phenylpent-1-en-1-yl)phenyl)azetidine-1-carboxylate] | 11.1 % of control | 1.11 | 66.9 | 80.5 | CYP inhibition (% of control) 1A2 (CYP1A2): 100 % of control; CYP inhibition (% of control) 2C9 (CYP2C9): 83 % of control; CYP inhibition (% of control) 2C19 (CYP2C19): 93 % of control; CYP inhibition (% of control) 2D6 (CYP2D6): 98 % of control |
| CN(C)CCn1cc(-c2ccc(/C(=C(/CCCO)c3ccccc3)c3ccc(O)cc3)cc2)nn1 [Compound 18u] | 5.33 % of control | 5.61 |  |  |  |
| OCCC/C(=C(\c1ccc(Br)cc1)c1ccc(N2CCNCC2)cc1)c1ccccc1 [Compound 20a, (E)-5-(4-bromophenyl)-4-phenyl-5-(4-(piperazin-1-yl)phenyl)pent-4-en-1-ol] | 3.15 % of control |  | 65.1 | 84.7 | CYP inhibition (% of control) 1A2 (CYP1A2): 85 % of control; CYP inhibition (% of control) 2C9 (CYP2C9): 76 % of control; CYP inhibition (% of control) 3A4 (CYP3A4): 55 % of control |
| OCCC/C(=C(\c1ccc(O)cc1)c1ccc(N2CCNCC2)cc1)c1ccccc1 [Compound 20c] | 2.72 % of control | 0.93 | 55.8 | 53.7 |  |
| OCCC/C(=C(\c1ccc(O)cc1)c1ccc(C2CNC2)cc1)c1ccccc1 [Compound 20e] |  |  | 78.1 | 82.1 | AUCINF (in vivo): 0.34 μMh; AUCall (in vivo): 0.28 μMh; Vss (in vivo): 52.8 L/kg; t1/2 (in vivo): 4.4 h |
| OCCC/C(=C(\c1ccc(Br)cc1)c1ccc(C2CNC2)cc1)c1ccccc1 [Compound 20f] |  |  | 83.9 | 99.5 | Permeability Pampa (in vitro): 0.14 10^−6 cm/s |
| CN1CCC(c2ccc(/C(=C(/CCCO)c3ccccc3)c3cccc(O)c3)cc2)CC1 [Compound 22ac] |  |  |  |  | CYP inhibition (% of control) 1A2 (CYP1A2): >100 % of control; CYP inhibition (% of control) 2C9 (CYP2C9): >100 % of control; CYP inhibition (% of control) 2C19 (CYP2C19): >100 % of control; CYP inhibition (% of control) 2D6 (CYP2D6): 86.2 % of control; CYP inhibition (% of control) 3A4 (CYP3A4): 85 % of control |
| Cc1ccc(/C(=C(\CCCO)c2ccccc2)c2ccc(C3CN(C(C)C)C3)cc2)cc1 [Compound 22e] |  |  |  |  | CYP inhibition (% of control) 1A2 (CYP1A2): 94.9 % of control; CYP inhibition (% of control) 2C9 (CYP2C9): 61.3 % of control; CYP inhibition (% of control) 2C19 (CYP2C19): 58.4 % of control; CYP inhibition (% of control) 2D6 (CYP2D6): 71.8 % of control; CYP inhibition (% of control) 3A4 (CYP3A4): 58.2 % of control; Permeability Pampa (in vitro): 6.16 10^−6 cm/s |
| CC(C)N1CCN(c2ccc(/C(=C(/CCCO)c3ccccc3)c3ccc(OS(C)(=O)=O)cc3)cc2)CC1 [Compound 28a, (E)-4-(5-hydroxy-1-(4-(4-isopropylpiperazin-1-yl)phenyl)-2-phenylpent-1-en-1-yl)phenyl methanesulfonate] | 1.14 % of control | 1.20 |  |  |  |
| CC(C)N1CCN(c2ccc(/C(=C(/CCCO)c3ccccc3)c3ccc(OS(=O)(=O)C(F)(F)F)cc3)cc2)CC1 [Compound 28d] | 1.69 % of control | 1.78 |  |  |  |
| CN1CCN(c2ccc(/C(=C(/CCCO)c3ccccc3)c3ccc(OC(=O)C(C)(C)C)cc3)cc2)CC1 [Compound 28e] | 4.76 % of control | 1.16 | 56.4 | 59.6 |  |
| CN1CCN(c2ccc(/C(=C(/CCCOC(=O)C(C)(C)C)c3ccccc3)c3ccc(O)cc3)cc2)CC1 [Compound 28f] | 4 % of control | 0.98 |  |  |  |
| CN1CCN(c2ccc(/C(=C(/CCCOC(=O)C(C)(C)C)c3ccccc3)c3ccc(OC(=O)C(C)(C)C)cc3)cc2)CC1 [Compound 28g] | 5.1 % of control | 1.25 |  |  |  |
| CN1CCN(Cc2ccc(/C(=C(/CCCO)c3ccccc3)c3ccc(O)cc3)cc2)CC1 [Compound 30a, (E)-4-(5-hydroxy-1-(4-((4-methylpiperazin-1-yl)methyl)phenyl)-2-phenylpent-1-en-1-yl)phenol] | 2.94 % of control | 3.09 |  |  |  |
| OCCC/C(=C(\c1ccc(O)cc1)c1ccc(OCCN2C[C@H]3CNC[C@H]3C2)cc1)c1ccccc1 [Compound 40, 4-((Z)-1-(4-(2-((3 aR,6aS)-hexahydropyrrolo[3,4-c]pyrrol-2(1H)-yl)ethoxy)phenyl)-5-hydroxy-2-phenylpent-1-en-1-yl)phenol] | 2.8 % of control | 0.96 | 64.7 | 72.0 |  |
| CN1CCN(C[Si](C)(C)c2ccc(/C(=C(/CCCO)c3ccccc3)c3ccc(O)cc3)cc2)CC1 [Compound 42a, (Z)-4-(1-(4-(dimethyl((4-methylpiperazin-1-yl)methyl)silyl)phenyl)-5-hydroxy-2-phenylpent-1-en-1-yl)phenol] | 4.37 % of control | 1.49 |  |  |  |
| C[Si](C)(CN1CCCCC1)c1ccc(/C(=C(/CCCO)c2ccccc2)c2ccc(O)cc2)cc1 [Compound 42b] | 11.6 % of control | 1.16 |  |  | Papp at 5 h (in vitro): 0.1 ×10⁻⁶ cm/s |
| C[Si](C)(CN1CCCC1)c1ccc(/C(=C(/CCCO)c2ccccc2)c2ccc(O)cc2)cc1 [Compound 42c] | 2.6 % of control | 0.89 |  |  |  |
| C[Si](C)(CC1CCNCC1)c1ccc(/C(=C(/CCCO)c2ccccc2)c2ccc(O)cc2)cc1 [Compound 42d] | 11.7 % of control | 3.99 |  |  |  |
| C[Si](C)(CN1C[C@H]2CNC[C@H]2C1)c1ccc(/C(=C(/CCCO)c2ccccc2)c2ccc(O)cc2)cc1 [Compound 42e] | 26.04 % of control | 6.37 |  |  |  |
| O=C(CN1CCCCC1)Nc1ccc(/C(=C(/CCCO)c2ccccc2)c2ccc(O)cc2)cc1 [Compound 44, (E)-N-(4-(5-hydroxy-1-(4-hydroxyphenyl)-2-phenylpent-1-en-1-yl)phenyl)-2-(piperidin-1-yl)acetamide] | 12.94 % of control | 3.16 |  |  |  |
| OCCC/C(=C(\c1ccc(O)cc1)c1ccc(NCCN2CCCCC2)cc1)c1ccccc1 [Compound 45, (E)-4-(5-hydroxy-2-phenyl-1-(4-((2-(piperidin-1-yl)ethyl)amino)phenyl)pent-1-en-1-yl)phenol] | 1.58 % of control | 1.55 |  |  |  |
| C[C@@]12CNC[C@]1(C)CN(CC(=O)Nc1ccc(/C(=C(/CCCO)c3ccccc3)c3ccc(O)cc3)cc1)C2 [Compound 46, 2-((3aR,6aS)-3a,6a-dimethylhexahydropyrrolo[3,4-c]pyrrol-2(1H)-yl)-N-(4-((E)-5-hydroxy-1-(4-hydroxyphenyl)-2-phenylpent-1-en-1-yl)phenyl)acetamide] | 78.46 % of control | 24.91 |  |  |  |
